Target: T1, P2X7 receptor (Homo sapiens, UniProt Q99572)
T1 construct: host or cells: SH-SY5Y
T1 sequence (Q99572 1-595): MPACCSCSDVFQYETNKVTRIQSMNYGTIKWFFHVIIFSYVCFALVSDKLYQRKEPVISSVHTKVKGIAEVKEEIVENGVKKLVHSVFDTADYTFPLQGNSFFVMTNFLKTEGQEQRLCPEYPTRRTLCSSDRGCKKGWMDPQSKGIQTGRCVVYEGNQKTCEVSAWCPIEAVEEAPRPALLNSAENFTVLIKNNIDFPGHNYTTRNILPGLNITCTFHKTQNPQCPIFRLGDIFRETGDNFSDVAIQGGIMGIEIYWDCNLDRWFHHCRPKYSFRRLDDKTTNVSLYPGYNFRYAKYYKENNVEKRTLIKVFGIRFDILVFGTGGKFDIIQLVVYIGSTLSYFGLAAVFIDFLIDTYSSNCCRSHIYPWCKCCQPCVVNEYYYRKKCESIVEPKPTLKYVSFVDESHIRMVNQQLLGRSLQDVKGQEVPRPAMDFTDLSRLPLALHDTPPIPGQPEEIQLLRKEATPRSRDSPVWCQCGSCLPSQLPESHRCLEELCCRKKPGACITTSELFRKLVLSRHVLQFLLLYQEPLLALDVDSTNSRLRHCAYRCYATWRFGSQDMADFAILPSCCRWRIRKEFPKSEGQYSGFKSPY
Assay: P2X7 calcium mobilization assay, high throughput, antagonist activity (Example 4A)
Assay type: cell-based
Conditions: not given
Method in brief: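 100,000 cells/well, plated day -1. Dye 1 h → rinse → compound 1 h, RT → FLIPR^TETRA Ca2+ mobilization. Max RFU minus mean negative control (no agonist); mean agonist-well max as positive control.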

SMILES | IC50 [nM]
O=C(NCC12CC3CC(CC(C3)C1)C2)c1cccc2nc(CC(=O)N3CCC4(CC3)OCCO4)cn12 [Compound 187, N-(adamantan-1-ylmethyl)-2-[2-(1,4-dioxa-8-azaspiro[4.5]dec-8-yl)-2-oxoethyl]imidazo[1,2-a]pyridine-5-carboxamide] | < 2000
CCOC(=O)C1CCCN(Cc2cn3c(C(=O)NCC45CC6CC(CC(C6)C4)C5)cccc3n2)C1 (stereo not drawn) [Compound 189, ethyl 1-({5-[(adamantan-1-ylmethyl)carbamoyl]imi-dazo[1,2-a]pyridin-2-yl}methyl)piperidine-3-carboxylate] | < 2000
O=C(NCC12CC3CC(CC(C3)C1)C2)c1cccc2nc(CN3CCCC(C(=O)O)C3)cn12 (stereo not drawn) [Compound 191, 1-({5-[(adamantan-1-ylmethyl)carbamoyl]imi-dazo[1,2-a]pyridin-2-yl}methyl)piperidine-3-carboxylic acid] | < 2000

Same assay, conditions: SH-SY5Y cells; 50% decrease in fluorescence response to 80 μM BzATP; read-out: IC50

SMILES | IC50 [nM]
CC(=O)NC1CCN(C(=O)Cc2cn3c(C(=O)NCC45CC6CC(CC(C6)C4)C5)cccc3n2)C1 (stereo not drawn) [Compound 170, 2-[2-(3-acetamidopyrrolidin-1-yl)-2-oxoethyl]-N-(adamantan-1-ylmethyl)imidazo[1,2-a]pyridine-5-carboxamide] | < 2000
COC[C@@H]1CCCN1C(=O)Cc1cn2c(C(=O)NCC34CC5CC(CC(C5)C3)C4)cccc2n1 [Compound 171, N-(adamantan-1-ylmethyl)-2-{2-[(2S)-2-(methoxymethyl)pyrrolidin-1-yl]-2-oxoethyl}imidazo[1,2-a]pyridine-5-carboxamide] | < 2000
COC[C@H]1CCCN1C(=O)Cc1cn2c(C(=O)NCC34CC5CC(CC(C5)C3)C4)cccc2n1 [Compound 172, N-(adamantan-1-ylmethyl)-2-{2-[(2R)-2-(methoxymethyl)pyrrolidin-1-yl]-2-oxoethyl}imidazo[1,2-a]pyridine-5-carboxamide] | < 2000
CC(C)CN(C)C(=O)Cc1cn2c(C(=O)NCC34CC5CC(CC(C5)C3)C4)cccc2n1 [Compound 173, N-(adamantan-1-ylmethyl)-2-{2-[isobutyl(methyl)amino]-2-oxoethyl}imidazo[1,2-a]pyridine-5-carboxamide] | < 2000
O=C(NCC12CC3CC(CC(C3)C1)C2)c1cccc2nc(CC(=O)N3CCCC(C(F)(F)F)C3)cn12 (stereo not drawn) [Compound 174, N-(adamantan-1-ylmethyl)-2-{2-oxo-2-[3-(trifluoromethyl)piperidin-1-yl]ethyl}imidazo[1,2-a]pyridine-5-carboxamide] | < 2000
CO[C@H]1CCN(C(=O)Cc2cn3c(C(=O)NCC45CC6CC(CC(C6)C4)C5)cccc3n2)C1 [Compound 175, N-(adamantan-1-ylmethyl)-2-{2-[(3S)-3-methoxypyrrolidin-1-yl]-2-oxoethyl}imidazo[1,2-a]pyridine-5-carboxamide] | < 2000
COCC1CCCN(C(=O)Cc2cn3c(C(=O)NCC45CC6CC(CC(C6)C4)C5)cccc3n2)C1 (stereo not drawn) [Compound 176, N-(adamantan-1-ylmethyl)-2-{2-[3-(methoxymethyl)piperidin-1-yl]-2-oxoethyl}imidazo[1,2-a]pyridine-5-carboxamide] | < 2000
COCC1CCCCN1C(=O)Cc1cn2c(C(=O)NCC34CC5CC(CC(C5)C3)C4)cccc2n1 (stereo not drawn) [Compound 177, N-(adamantan-1-ylmethyl)-2-{2-[2-(methoxymethyl)piperidin-1-yl]-2-oxoethyl}imidazo[1,2-a]pyridine-5-carboxamide] | < 2000
COCCC1CCCN(C(=O)Cc2cn3c(C(=O)NCC45CC6CC(CC(C6)C4)C5)cccc3n2)C1 (stereo not drawn) [Compound 178, N-(adamantan-1-ylmethyl)-2-{2-[3-(2-methoxyethyl)piperidin-1-yl]-2-oxoethyl}imidazo[1,2-a]pyridine-5-carboxamide] | < 2000
O=C(NCC12CC3CC(CC(C3)C1)C2)c1cccc2nc(CC(=O)N3CCN(C4CCC4)CC3)cn12 [Compound 179, N-(adamantan-1-ylmethyl)-2-[2-(4-cyclobutylpiperazin-1-yl)-2-oxoethyl]imidazo[1,2-a]pyridine-5-carboxamide] | < 2000
O=C(NCC12CC3CC(CC(C3)C1)C2)c1cccc2nc(CC(=O)N3CCCC3)cn12 [Compound 180, N-(adamantan-1-ylmethyl)-2-(2-oxo-2-pyrrolidin-1-ylethyl)imidazo[1,2-a]pyridine-5-carboxamide] | < 2000
O=C(NCC12CC3CC(CC(C3)C1)C2)c1cccc2nc(CC(=O)N3CCCCC3)cn12 [Compound 181, N-(adamantan-1-ylmethyl)-2-(2-oxo-2-piperidin-1-ylethyl)imidazo[1,2-a]pyridine-5-carboxamide] | < 2000
O=C(NCC12CC3CC(CC(C3)C1)C2)c1cccc2nc(CC(=O)N3CCOCC3)cn12 [Compound 182, N-(adamantan-1-ylmethyl)-2-(2-morpholin-4-yl-2-oxoethyl)imidazo[1,2-a]pyridine-5-carboxamide] | < 2000
CCC(=O)NC1CCN(C(=O)Cc2cn3c(C(=O)NCC45CC6CC(CC(C6)C4)C5)cccc3n2)CC1 [Compound 183, N-(adamantan-1-ylmethyl)-2-{2-oxo-2-[4-(propionylamino)piperidin-1-yl]ethyl}imidazo[1,2-a]pyridine-5-carboxamide] | < 2000
CC(C)C(=O)NC1CCN(C(=O)Cc2cn3c(C(=O)NCC45CC6CC(CC(C6)C4)C5)cccc3n2)CC1 [Compound 184, N-(adamantan-1-ylmethyl)-2-{2-[4-(isobutyrylamino)piperidin-1-yl]-2-oxoethyl}imidazo[1,2-a]pyridine-5-carboxamide] | < 2000
CC1(C)CCCN(C(=O)Cc2cn3c(C(=O)NCC45CC6CC(CC(C6)C4)C5)cccc3n2)C1 [Compound 185, N-(adamantan-1-ylmethyl)-2-[2-(3,3-dimethylpiperidin-1-yl)-2-oxoethyl]imidazo[1,2-a]pyridine-5-carboxamide] | < 2000
CCCN(C)C(=O)Cc1cn2c(C(=O)NCC34CC5CC(CC(C5)C3)C4)cccc2n1 [Compound 186, N-(adamantan-1-ylmethyl)-2-{2-[methyl(propyl)amino]-2-oxoethyl}imidazo[1,2-a]pyridine-5-carboxamide] | < 2000
N[C@H]1CCN(Cc2cn3c(C(=O)NCC45CC6CC(CC(C6)C4)C5)cccc3n2)C1 [Compound 188, N-(adamantan-1-ylmethyl)-2-{[(3S)-3-aminopyrrolidin-1-yl]methyl}imidazo[1,2-a]pyridine-5-carboxamide] | < 2000
O=C(NCC12CC3CC(CC(C3)C1)C2)c1cccc2nc(COC3CCNC3)cn12 (stereo not drawn) [Compound 190, N-(adamantan-1-ylmethyl)-2-[(pyrrolidin-3-yloxy)methyl]imidazo[1,2-a]pyridine-5-carboxamide] | < 2000
O=C(NCC12CC3CC(CC(C3)C1)C2)c1cccc2nc(CC(=O)N3C[C@@H]4C[C@H]3CN4)cn12 [Compound 192, N-(adamantan-1-ylmethyl)-2-{2-[(1S,4S)-2,5-diazabicyclo[2.2.1]hept-2-yl]-2-oxoethyl}imidazo[1,2-a]pyridine-5-carboxamide] | < 2000
CS(=O)(=O)NCCc1cn2c(C(=O)NCC34CC5CC(CC(C5)C3)C4)cccc2n1 [Compound 193, N-(adamantan-1-ylmethyl)-2-{2-[(methylsulfonyl)amino]eth-yl}imidazo[1,2-a]pyridine-5-carboxamide] | < 2000
CCS(=O)(=O)NCCc1cn2c(C(=O)NCC34CC5CC(CC(C5)C3)C4)cccc2n1 [Compound 194, N-(adamantan-1-ylmethyl)-2-{2-[(ethylsulfonyl)amino]eth-yl}imidazo[1,2-a]pyridine-5-carboxamide] | < 2000
CC(=O)c1cn2c(C(=O)NCC34CC5CC(CC(C5)C3)C4)cccc2n1 [Compound 196, 2-acetyl-N-(adamantan-1-ylmethyl)imidazo[1,2-a]pyridine-5-carboxamide] | < 2000
O=C(NCC12CC3CC(CC(C3)C1)C2)c1cccc2nc(CN3CC[C@@H](N(CCO)CCO)C3)cn12 [Compound 197, N-(adamantan-1-ylmethyl)-2-({(3R)-3-[bis(2-hydroxy-ethyl)amino]pyrrolidin-1-yl}methyl)imidazo[1,2-a]pyridine-5-carboxamide] | < 2000
O=C(NCC12CC3CC(CC(C3)C1)C2)c1cccc2nc(CN3CC[C@@H](NCCO)C3)cn12 [Compound 198, N-(adamantan-1-ylmethyl)-2-({(3R)-3-[(2-hydroxy-ethyl)amino]pyrrolidin-1-yl}methyl)imidazo[1,2-a]pyridine-5-carboxamide] | < 2000
O=C(NCC12CC3CC(CC(C3)C1)C2)c1cccc2nc(Cn3cnc(CO)c3)cn12 [Compound 199, N-(adamantan-1-ylmethyl)-2-{[4-(hydroxymethyl)-1H-imidazol-1-yl]methyl}imidazo[1,2-a]pyridine-5-carboxamide] | < 2000
O=C(NCC12CC3CC(CC(C3)C1)C2)c1cccc2nc(Cn3cncc3CO)cn12 [Compound 200, N-(adamantan-1-ylmethyl)-2-{[5-(hydroxymethyl)-1H-imidazol-1-yl]methyl}imidazo[1,2-a]pyridine-5-carboxamide] | < 2000

Source: patent US8431593B2, “Heteroaryl amide derivatives” (H. Lundbeck A/S, priority 2006, dated 2013)
